Measurements as given in patent US7563935B2, “Crystal forms of astaxanthin” (Phares Pharmaceutical Research N.V. et al., priority 2005, dated 2009).

What was measured:
Assay type in all cases: physicochemical
[1] = Stability of the crystal in the dry form
[2] = Solubility and rate of dissolution in organo-solvents or oils (comparison of crystal forms); conditions: Form I vs Form II
[3] = Solubility profile in dichloromethane; conditions: 20° C.-25° C.

stability [1]	rate of dissolution in organo-solvents or oils relative to the other crystal form [2]	solubility in organo-solvents or oils relative to the other crystal form [2]	solubility profile in dichloromethane [3]	SMILES
stable in the dry form	higher	higher solubility	35 to 45 g/L	CC1=C(/C=C/C(C)=C/C=C/C(C)=C/C=C/C=C(C)/C=C/C=C(C)/C=C/C2=C(C)C(=O)C(O)CC2(C)C)C(C)(C)CC(O)C1=O (stereo not drawn) [Crystal Form I, 3,3′-dihydroxy-β,β-carotene-4,4′-dione]
		lower solubility	10-30 g/l	CC1=C(/C=C/C(C)=C/C=C/C(C)=C/C=C/C=C(C)/C=C/C=C(C)/C=C/C2=C(C)C(=O)C(O)CC2(C)C)C(C)(C)CC(O)C1=O (stereo not drawn) [Crystal Form II, 3,3′-dihydroxy-β,β-carotene-4,4′-dione]
